From the supplement of paper PMC10307832

Experiments:
Experiment in all cases: relative viability (nuclei count vs DMSO), 5 days (fraction); higher = more cells survive
HCC-44 = test system: HCC-44
Summary of the method: (§1)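 Each reported value is a median over duplicate plates. It expresses relative viability: treated-well nuclei count divided by vehicle-well nuclei count. Lung cancer cell lines in 1536-well plates were dosed by pin tool a day after seeding, alone with one drug or with a fixed anchor-drug dose plus five library-drug doses (not always all listed) in √10 steps, and nuclei were counted after 5 days.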

EPLC-272H = test system: EPLC-272H
Summary of the method: as §1

NCI-H1666 = test system: NCI-H1666
Summary of the method: as §1

NCI-H2342 = test system: NCI-H2342
Summary of the method: as §1

NCI-H650 = test system: NCI-H650
Summary of the method: as §1

LU99A = test system: LU99A
Summary of the method: as §1

LOU-NH91 = test system: LOU-NH91
Summary of the method: as §1

NCI-H2087 = test system: NCI-H2087
Summary of the method: as §1

201T = test system: 201T
Summary of the method: as §1

NCI-H2170 = test system: NCI-H2170
Summary of the method: as §1

H3255 = test system: H3255
Summary of the method: as §1

NCI-H1975 = test system: NCI-H1975
Summary of the method: as §1

EKVX = test system: EKVX
Summary of the method: as §1

NCI-H647 = test system: NCI-H647
Summary of the method: as §1

PC-3 [JPC-3] = test system: PC-3 [JPC-3]
Summary of the method: as §1

SW 1573 = test system: SW 1573
Summary of the method: as §1

HCC-827 = test system: HCC-827
Summary of the method: as §1

BEN = test system: BEN
Summary of the method: as §1

NCI-H1437 = test system: NCI-H1437
Summary of the method: as §1

LCLC-97TM1 = test system: LCLC-97TM1
Summary of the method: as §1

COR-L 105 = test system: COR-L 105
Summary of the method: as §1

NCI-H2085 = test system: NCI-H2085
Summary of the method: as §1

In the case of Nc1ccn([C@@H]2O[C@H](CO)[C@@H](O)[C@@H]2O)c(=O)n1 [Cytarabine] + CC(=O)Nc1cccc(-n2c(=O)n(C3CC3)c(=O)c3c(Nc4ccc(I)cc4F)n(C)c(=O)c(C)c32)c1 [Trametinib] (partner 0.02 µM), the relative viability (HCC-44; first compound 0.005 µM) is reported as 1.08, the relative viability (HCC-44; first compound 0.01581 µM) is reported as 1.03 and the relative viability (HCC-44; first compound 0.05 µM) is reported as 1.08. It also gave a relative viability (HCC-44; first compound 0.1581 µM) of 1.04, a relative viability (HCC-44; first compound 0.5 µM) of 1.01 and a relative viability (EPLC-272H; first compound 0.005 µM) of 0.302. For the same molecule, the relative viability (EPLC-272H; first compound 0.01581 µM) was 0.246, the relative viability (EPLC-272H; first compound 0.05 µM) was 0.283 and the relative viability (EPLC-272H; first compound 0.1581 µM) was 0.211. It also gave a relative viability (EPLC-272H; first compound 0.5 µM) of 0.22, a relative viability (NCI-H1666; first compound 0.005 µM) of 0.806 and a relative viability (NCI-H1666; first compound 0.01581 µM) of 0.728. For the same molecule, the relative viability (NCI-H1666; first compound 0.05 µM) was 0.76, the relative viability (NCI-H1666; first compound 0.1581 µM) was 0.646 and the relative viability (NCI-H1666; first compound 0.5 µM) was 0.592. It also gave a relative viability (NCI-H2342; first compound 0.005 µM) of 0.779, a relative viability (NCI-H2342; first compound 0.01581 µM) of 0.825 and a relative viability (NCI-H2342; first compound 0.05 µM) of 0.803. It also gave a relative viability (NCI-H2342; first compound 0.1581 µM) of 0.579, a relative viability (NCI-H2342; first compound 0.5 µM) of 0.646 and a relative viability (NCI-H650; first compound 0.005 µM) of 0.793. It also gave a relative viability (NCI-H650; first compound 0.01581 µM) of 0.694, a relative viability (NCI-H650; first compound 0.05 µM) of 0.47 and a relative viability (NCI-H650; first compound 0.1581 µM) of 0.186. For the same molecule, the relative viability (NCI-H650; first compound 0.5 µM) was 0.196, the relative viability (LU99A; first compound 0.005 µM) was 0.588 and the relative viability (LU99A; first compound 0.01581 µM) was 0.447. The relative viability (LU99A; first compound 0.05 µM) was 0.497, the relative viability (LU99A; first compound 0.1581 µM) was 0.549 and the relative viability (LU99A; first compound 0.5 µM) was 0.544. It also gave a relative viability (LOU-NH91; first compound 0.005 µM) of 0.758, a relative viability (LOU-NH91; first compound 0.01581 µM) of 0.807 and a relative viability (LOU-NH91; first compound 0.05 µM) of 0.699. The relative viability (LOU-NH91; first compound 0.1581 µM) was 0.657, the relative viability (LOU-NH91; first compound 0.5 µM) was 0.644 and the relative viability (NCI-H2087; first compound 0.005 µM) was 0.187. For the same molecule, the relative viability (NCI-H2087; first compound 0.01581 µM) was 0.221, the relative viability (NCI-H2087; first compound 0.05 µM) was 0.187 and the relative viability (NCI-H2087; first compound 0.1581 µM) was 0.139. For the same molecule, the relative viability (NCI-H2087; first compound 0.5 µM) was 0.126, the relative viability (201T; first compound 0.005 µM) was 0.728 and the relative viability (201T; first compound 0.01581 µM) was 0.724. The relative viability (201T; first compound 0.05 µM) was 0.76, the relative viability (201T; first compound 0.1581 µM) was 0.709 and the relative viability (201T; first compound 0.5 µM) was 0.694. For the same molecule, the relative viability (NCI-H2170; first compound 0.005 µM) was 0.741, the relative viability (NCI-H2170; first compound 0.01581 µM) was 0.665 and the relative viability (NCI-H2170; first compound 0.05 µM) was 0.581. The relative viability (NCI-H2170; first compound 0.1581 µM) was 0.374, the relative viability (NCI-H2170; first compound 0.5 µM) was 0.299 and the relative viability (H3255; first compound 0.005 µM) was 0.637. The relative viability (H3255; first compound 0.01581 µM) was 0.652, the relative viability (H3255; first compound 0.05 µM) was 0.639 and the relative viability (H3255; first compound 0.1581 µM) was 0.559. For the same molecule, the relative viability (H3255; first compound 0.5 µM) was 0.533, the relative viability (NCI-H1975; first compound 0.005 µM) was 0.34 and the relative viability (NCI-H1975; first compound 0.01581 µM) was 0.267. It also gave a relative viability (NCI-H1975; first compound 0.05 µM) of 0.631, a relative viability (NCI-H1975; first compound 0.1581 µM) of 0.25 and a relative viability (NCI-H1975; first compound 0.5 µM) of 0.24. The relative viability (EKVX; first compound 0.005 µM) was 0.584, the relative viability (EKVX; first compound 0.01581 µM) was 0.285 and the relative viability (EKVX; first compound 0.05 µM) was 0.295. It also gave a relative viability (EKVX; first compound 0.5 µM) of 0.167, a relative viability (NCI-H647; first compound 0.005 µM) of 0.449 and a relative viability (NCI-H647; first compound 0.01581 µM) of 0.317. The relative viability (NCI-H647; first compound 0.05 µM) was 0.22, the relative viability (NCI-H647; first compound 0.1581 µM) was 0.0976 and the relative viability (NCI-H647; first compound 0.5 µM) was 0.0793. The relative viability (PC-3 [JPC-3]; first compound 0.005 µM) was 0.705, the relative viability (PC-3 [JPC-3]; first compound 0.01581 µM) was 0.73 and the relative viability (PC-3 [JPC-3]; first compound 0.05 µM) was 0.589. The relative viability (PC-3 [JPC-3]; first compound 0.1581 µM) was 0.423, the relative viability (PC-3 [JPC-3]; first compound 0.5 µM) was 0.498 and the relative viability (SW 1573; first compound 0.005 µM) was 0.509. The relative viability (SW 1573; first compound 0.01581 µM) was 0.482, the relative viability (SW 1573; first compound 0.05 µM) was 0.415 and the relative viability (SW 1573; first compound 0.1581 µM) was 0.177. For the same molecule, the relative viability (SW 1573; first compound 0.5 µM) was 0.0822, the relative viability (HCC-827; first compound 0.005 µM) was 0.362 and the relative viability (HCC-827; first compound 0.01581 µM) was 0.313. For the same molecule, the relative viability (HCC-827; first compound 0.05 µM) was 0.239, the relative viability (HCC-827; first compound 0.1581 µM) was 0.188 and the relative viability (HCC-827; first compound 0.5 µM) was 0.154. It also gave a relative viability (BEN; first compound 0.005 µM) of 1.08, a relative viability (BEN; first compound 0.01581 µM) of 0.897 and a relative viability (BEN; first compound 0.05 µM) of 0.781. For the same molecule, the relative viability (BEN; first compound 0.1581 µM) was 0.553, the relative viability (BEN; first compound 0.5 µM) was 0.372 and the relative viability (NCI-H1437; first compound 0.005 µM) was 0.503. The relative viability (NCI-H1437; first compound 0.01581 µM) was 0.406, the relative viability (NCI-H1437; first compound 0.05 µM) was 0.416 and the relative viability (NCI-H1437; first compound 0.1581 µM) was 0.238. It also gave a relative viability (NCI-H1437; first compound 0.5 µM) of 0.178, a relative viability (LCLC-97TM1; first compound 0.005 µM) of 0.191 and a relative viability (LCLC-97TM1; first compound 0.01581 µM) of 0.159. For the same molecule, the relative viability (LCLC-97TM1; first compound 0.05 µM) was 0.173, the relative viability (LCLC-97TM1; first compound 0.1581 µM) was 0.136 and the relative viability (LCLC-97TM1; first compound 0.5 µM) was 0.135. The relative viability (COR-L 105; first compound 0.005 µM) was 0.435, the relative viability (COR-L 105; first compound 0.01581 µM) was 0.473 and the relative viability (COR-L 105; first compound 0.05 µM) was 0.438. For the same molecule, the relative viability (COR-L 105; first compound 0.1581 µM) was 0.315, the relative viability (COR-L 105; first compound 0.5 µM) was 0.302 and the relative viability (NCI-H2085; first compound 0.005 µM) was 0.504. It also gave a relative viability (NCI-H2085; first compound 0.01581 µM) of 0.552, a relative viability (NCI-H2085; first compound 0.05 µM) of 0.5 and a relative viability (NCI-H2085; first compound 0.1581 µM) of 0.26. For the same molecule, the relative viability (NCI-H2085; first compound 0.5 µM) was 0.39.
